Laboratory results published in patent US12612395B2, “Rocaglate derivatives and uses thereof” (TRUSTEES OF BOSTON UNIVERSITY, priority 2023, dated 2026).

What was measured:
[1] = target: T1, DDX3X (Homo sapiens, UniProt O00571); assay: PISA assay in GBM0308 cell lysates, DDX3X; type: binding; conditions: GBM0308 lysate, compound 10 μM, AMP-PNP and (AG)8 RNA added
T1 construct: endogenous in cells; host or cells: GBM0308 glioblastoma stem cells (lysate)
Source text: Derivatization-free target identification using a modified proteome integral solubility alteration (PISA) assay. The inventors next pursued proteome-wide target identification to better understand the target profiles of CSC-selective rocaglates. To enable cross-compound comparisons of target engagement, the inventors opted to use the Proteome Integral Solubility Alteration (PISA) assay,^29 a derivative of the mass spectrometry-based Cellular Thermal Shift Assay (MS-CETSA). In MS-CETSA,^30,31 target engagement is inferred through proteome-wide analysis of compound-induced changes to protein thermal stability; proteins with a shift in their half-maximal thermal denaturation temperature upon compound treatment are flagged as potential targets. The PISA assay obviates the need for MS-CETSA-derived thermal denaturation curves through curve integration by pooling of individual temperature points into a single “integral” sample for each treatment condition, thereby increasing throughput (FIG. 9). In contrast to MS-CETSA (which relies on curve comparisons), PISA determinations are performed by simply comparing soluble protein abundance levels between compound- and DMSO-treated samples. Importantly, protein fold-change measurements in PISA experiments generally scale with the thermal shift derived from CETSA experiments, and the magnitude of a thermal shift can inform on relative affinity between compounds and individual targets.^30,32-25 Maximal stability changes are protein-specific,^36 however, precluding estimations of preference for one target over another. Thus, PISA allows for simultaneous target profiling and comparisons of binding affinity between different compounds within a given target.
Of note, we also detected stabilization of DDX3Y, a paralog which shares >90% sequence similarity with DDX3X.
PISA assay in GBM0308 cell lysates: The PISA assay was performed in lysates as described by Gaetani and coworkers^S2 with slight modification. […] Lysate concentration was determined using a Pierce BCA Protein Assay Kit and adjusted to 2.0 mg/mL in lysis buffer. […]

[2] = tested on: GBM0308 stem cells; assay: RNA sequencing of treated GBM CSCs; type: cell-based, human; conditions: 0.1 μM and 1 μM, 12 h and 24 h
Source text: To understand the transcriptomic changes underlying (−)-20 effects on GBM CSCs, the inventors performed RNA sequencing experiments in these cells. […] Furthermore, upon compound treatment, the inventors observed the downregulation of several hallmark gene sets associated with critical cellular processes, including apoptosis, glycolysis, MTORC1 signaling, NOTCH signaling, epithelial-mesenchymal transition (EMT), and angiogenesis (FIGS. 5D and 18A). […] This observation emphasizes the complexity of cell death mechanisms and the potential origins of selectivity of (−)-20 against CSCs. […] (FIG. 5E).
RNA Sequencing and Analysis: GBM0308 cells cultured in NBE medium were treated with compound (−)-20 at concentrations of 0.1 μM, 1 μM and DMSO. At 12 h and 24 h timepoints, total RNA was extracted using RNeasy mini kit (Qiagen) as per the manufacturer's instruction. Preparation of the RNA library and transcriptome sequencing were conducted by Novogene. […]

T1 sequence (O00571 whole entry): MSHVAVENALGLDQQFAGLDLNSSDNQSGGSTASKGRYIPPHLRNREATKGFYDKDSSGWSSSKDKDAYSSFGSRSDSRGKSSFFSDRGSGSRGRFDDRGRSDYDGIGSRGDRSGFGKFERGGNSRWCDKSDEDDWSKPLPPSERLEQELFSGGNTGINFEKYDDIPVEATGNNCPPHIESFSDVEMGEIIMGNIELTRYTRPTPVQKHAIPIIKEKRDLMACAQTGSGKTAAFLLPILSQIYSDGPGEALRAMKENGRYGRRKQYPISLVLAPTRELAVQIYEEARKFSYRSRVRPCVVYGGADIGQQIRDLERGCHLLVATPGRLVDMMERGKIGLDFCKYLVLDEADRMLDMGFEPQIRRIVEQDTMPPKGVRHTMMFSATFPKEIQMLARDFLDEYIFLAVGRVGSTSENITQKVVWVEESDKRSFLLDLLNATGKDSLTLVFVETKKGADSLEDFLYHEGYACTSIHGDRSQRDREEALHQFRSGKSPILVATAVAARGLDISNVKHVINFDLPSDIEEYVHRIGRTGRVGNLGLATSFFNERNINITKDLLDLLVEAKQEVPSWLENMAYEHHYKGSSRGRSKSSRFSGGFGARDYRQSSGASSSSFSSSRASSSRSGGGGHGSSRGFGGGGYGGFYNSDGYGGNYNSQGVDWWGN

SMILES | thermal stabilization of DDX3X (PISA), in words [1] | expression of genes involved in stem cell maintenance and survival (NOTCH1, NOTCH2, NOTCH3, SALL3, SOX2) [2]
COc1cc(OC)c2c(c1)O[C@@]1(c3ccc(Br)cc3)[C@H](c3ccccc3)[C@@H](C(=O)NS(=O)(=O)N(C)C)[C@@H](O)[C@@]21O [(−)-20, (1R,2R,3S,3aR,8bS)-3a-(4-bromophenyl)-N—(N,N-dimethylsulfamoyl)-1,8b-dihydroxy-6,8-dimethoxy-3-phenyl-2,3,3a,8b-tetrahydro-1H-cyclopenta[b]benzofuran-2-carboxamide] | stabilized | downregulated
CONC(=O)[C@H]1[C@@H](O)[C@@]2(O)c3c(OC)cc(OC)cc3O[C@@]2(c2ccc(Br)cc2)[C@@H]1c1ccccc1 [(−)-7, SDS-1-021] | stabilized | –
